The text below walks through data of patent US5006343A, “Pulmonary administration of pharmaceutically active substances” (priority 1988, dated 1991).

Series [1] is described as follows: In vivo anesthetized rat model, radiolabelled Vitamin E in lung, 24 hour timecourse. How it is done:
(§1) The in vivo assay employed in examples 2 and 3 was performed by the following general procedure. The compositions were administered to the lungs of anesthetized adult Sprague-Dawley rats by endotracheal cannula. At various times after administration of the compositions, the animals were sacrificed by overdosing with anesthetics. The lungs and serum were obtained from each rat for analysis. The lung tissue was minced and extracted with 2:1 chloroform:methanol. The serum was extracted with 2:1 chloroform:methanol. The serum was sampled to get an indication of the amount of pharmaceutically active substance being transported into general circulation.
(§2) Liposomes were prepared as described in section A with the addition of ^3 H-Vitamin E in the lipid mixture before evaporation. The following weight ratios of lipid and Vitamin E were used to prepare the liposomes:
(§3) DPPC:PC:PG:Cholesterol:Vitamin E [drawing 1] The chloroform was evaporated from the lipid/Vitamin E mixture by rotary evaporation. The dried lipid/Vitamin E mixture was rehydrated in MEM-Krebs to a concentration of 87 μg Vitamin E/ml. Alveolar surfactant protein SP-A was added to the liposome mixture to a concentration of 100 μg/ml.
(§4) The liposomes containing Vitamin E prepared as in Example I above were tested in vivo by administration to rats according to the procedure outlined above in section C. […]

A short description of series [2]: In vivo anesthetized rat model, radiolabelled Vitamin E in serum, 24 hour timecourse. On the procedure: as §1, §2, §3, §4
The conditions of series [3]: given systemically; cited from earlier work.
Series [4] concerns type II cells. Briefly: In vitro uptake of Vitamin E liposomes by freshly isolated type II cells. In kind it is cell-based, male Sprague-Dawley rats. As to conditions: result in words. On the procedure: (§5) The in vitro assay employed in examples 1 and 4 was performed by the following general procedure. Freshly isolated type II cells were prepared by the method of Dobbs, et al., Am. Rev. Respir. Sid. (1986) 134:141-145. Briefly, lungs of specific-pathogen-free male Sprague-Dawley rats weighing 160-180 g (Bantin-Kingman, Fremont, CA) were digested with elastase (Cooper Biomedical, Malverne, PA). The minced digest was filtered through a series of nylon meshes and cells were collected by centrifugation. The cells were then plated on IgG-coated plates and the non-type II cells, which were primarily macrophages and lymophocytes, adhered to the plate over a period of one hour at 37° C. in a 10% CO2 /air incubator. The non-adherent cells were removed by gentle panning and were centrifuged at 130×g for 8 minutes. This cell pellet contained 85±1% type II cells. The viability of the cells as determined by erythrosin B exclusion averaged 97±1%.
(§6) 2.5×10^6 freshly isolated type II cells were suspended in 1 ml of MEM-Krebs. The concentration of calcium was […]. […] Zero time values were determined by centrifugation and washing of the cells immediately after addition of liposomes. […] The final cell pellet was resuspended in 0.5 ml of MEM-Krebs; 0.3 ml was analyzed for radioactivity in a Beckman LS-75000 scintillation counter. […]

A short description of series [5]: In vivo anesthetized rat model, lung incorporation of radiolabelled Vitamin E, 60 minute timecourse. Further details: species or system Sprague-Dawley rats. Conditions: result in words. How it is done:
The serum was extracted with 2:1 chloroform:methanol.
The animals were sacrificed at 0 and 60 minutes and the lungs were tested for incorporation of radiolabelled Vitamin E as described above, with the following results: […]

Series [6] concerns type II cells. Put plainly: In vitro uptake of 6-carboxy-fluorscein liposomes by freshly isolated type II cells. The class given is cell-based, male Sprague-Dawley rats. As to conditions: result in words. How it is done:
as §5, §6

Series [7] is described as follows: ASP activity (in vivo assay of Robertson, or in vitro surface tension assay). As to conditions: in combination as well as independently; result in words. On the procedure:
In this assay, the sample to be assessed is administered through an endotracheal tube to fetal rabbits or lambs delivered prematurely by Caesarian section. (These "preemies" lack their own alveolar surfactant, and are supported on a ventilator.) Measurements of lung Compliance, blood gases and ventilator pressure provide indices of activity.
Preliminary assessment of activity may also be made by an in vitro assay, for example that of Kihg, R. J., et al, Am J Physiol (1972) 223:715-726, or that illustrated below of Hawgood, et al, which utilizes a straightforward measurement of surface tension at an air-water interface when the protein is mixed with a phospholipid vesicle preparation. […] The ASP activity can be used to enhance pulmonary administration of pharmaceutically active substances.

Series [8] deals with type II cells. As to conditions: result in words; cited from earlier work.
The mark [9] stands for this setting: 24 hour timecourse, result in words.

Turning to Vitamin E [reference compound], the “amount of radiolabelled Vitamin E in the lung, with vs. without SP-A” value in series [1] (rat, in vivo) is “comparable in experimental and control animals”. Further, in series [2] (rat, in vivo), the “serum radiolabelled Vitamin E, with vs. without SP-A” value is recorded as “The same non-specific effect is also seen in the serum”.

As for `N=C(N)c1ccc(OCCCCCOc2ccc(C(=N)N)cc2)cc1` [Pentamidine isethionate, pentamidine isethionate], the toxicity result in series [3] is on record as “quite toxic if given systemically”.

Turning to “alveolar surfactant protein SP-A: relatively high molecular weight (of the order of 32 kD) apoprotein associated with the lung surfactant complex; sequence of FIG. 1”, the “effect on uptake of liposomes containing Vitamin E” value in series [4] was “stimulates the uptake”. Besides, the “effect on transport of the liposomes containing Vitamin E to lung tissue” value in series [5] is given as “stimulates the transport of the liposomes containing Vitamin E to lung tissue in a rapid fashion”. Besides, the “effect on transport to the lung” value in series [1] (setting [9]) was “enhances transport to the lung”. Further, the “effect on serum levels of radiolabelled vitamin E” value in series [2] (setting [9]) is on record as “enhances serum levels of radiolabelled vitamin E”. For the same molecule, in series [6], the “effect on uptake of liposomes containing 6-carboxy-fluorscein” value is given as “stimulates the uptake”. In addition, in series [7], the ASP activity entry is on record as “show ASP activity in combination as well as independently”. In series [8], the “cell specificity of effects” value is “seem specific to type II cells and macrophages”.

B1: SP-B: the larger of the two hydrophobic proteins, about 18 kD on gels under non-reducing conditions; sequence of FIG. 2 (protein, UniProt P07988 201-279, looked up)
Pulmonary …: FPIPLPYCWLCRALIKRIQAMIPKGALAVAVAQVCRVVPLVAGGICQCLAERYSVILLDTLLGRMLPQLVCRLVLRCSM
modifications: Pulmonary surfactant-associated protein B
Turning to B1, the ASP activity entry in series [7] was “show ASP activity in combination as well as independently”.
